Results as given in paper PMC6647725 (Analytical and Bioanalytical Chemistry, 2019).

Assays:
[1] = Plasma pharmacokinetics in mice after oral administration; assay type: in vivo, mouse (FVB); conditions: FVB, po; mouse plasma, 10 mg/kg orally administered, t = 2 h; read-out: plasma concentration of representative sample
Protocol: This method was developed to support pharmacokinetic and tissue distribution studies of the CDK4/6 inhibitors in mice (FVB background). These studies were done separately for each drug. Animal housing and studies were conducted according to institutional guidelines complying with Dutch and European Union legislation (approval number from The Dutch Central Animal Testing Committee: AVD301002016595). […] Approximately 50 μL of blood was collected from the tip of the tail at several time points, except at the last one, when 500–1000 μL of blood was collected by cardiac puncture under isoflurane anesthesia. […] Mice were sacrificed by cervical dislocation and the organs were collected and weighed. Plasma was obtained using sodium heparin as anticoagulant after centrifugation at 9000g, 4 °C, for 6 min. When necessary, 10 μL of mouse plasma was diluted with 40 μL of human plasma. The tissue homogenates were prepared according to the procedure described in the “Tissue homogenate preparation” section. Plasma and tissue homogenate samples were stored at − 20 and − 70 °C, respectively, until the LC-MS/MS analysis was performed.

CDK6 = conditions: cited from earlier work
[2] = Stability of stock solutions at − 20 °C; assay type: physicochemical; conditions: 1 mg/mL stock solution, storage at − 20 °C
Protocol: (§1) The stability of each analyte was investigated in all the previously mentioned matrices. For plasma (both human and mouse), the stability was determined in triplicate at two concentration levels, QC L and QC H, whereas for mouse tissue homogenates only at QC M (except the brain in one stability condition). For all matrices, the following stability conditions were assessed: short term at room temperature (RT), long term at − 20 °C, and after 3 freeze-thaw (F/T) cycles at − 20 °C/RT. Furthermore, for tissue homogenates, the short-term stability in ice-water, long-term stability at − 70 °C, and F/T stability at − 70 °C/ice-water were also evaluated. Additionally, the stability in the final extract was tested. For this, the QC L and QC H final extracts from the plasma, brain, and spleen and the QC M final extract from the liver, kidney and small intestine were stored at 4–8 °C up to 3 days. Lastly, the stability of the stock solutions at − 20 °C was investigated.

CDK4 = conditions: cited from earlier work
[3] = Stability in tissue homogenates; assay type: in vitro ADME, mouse; conditions: room temperature and ice/water bath
Protocol: as §1

For `CC(=O)c1c(C)c2cnc(Nc3ccc(N4CCNCC4)cn3)nc2n(C2CCCC2)c1=O` [Palbociclib], the concentration at 2 h [1] is given as 311 ng/mL, the IC50 (CDK6) is given as 15 nM and the “stability of stock solutions (time stable)” value [2] is given as “at least 12 months”. The IC50 (CDK4) was […] and the “time stable in kidney and spleen homogenates” value [3] was “at least 3 h”.
